One experiment has as its system their receptors. Particulars: ref Rizzi et al. 2014; Ruzza et al. 2014; cited from earlier work.
For experiment [1] the following is noted: cited from earlier work.
In the next experiment the test system is NPSR(−/−) mice. Put plainly: Recovery of righting reflex. It is filed as in vivo, mouse (congenic to CD-1). The settings on record: diazepam 15 mg/kg i.p.
In experiment [2] the target is T1, mouse NPS receptor (NPSR) (Mus musculus, UniProt Q8BZP8).
T1 sequence (Q8BZP8 1-371): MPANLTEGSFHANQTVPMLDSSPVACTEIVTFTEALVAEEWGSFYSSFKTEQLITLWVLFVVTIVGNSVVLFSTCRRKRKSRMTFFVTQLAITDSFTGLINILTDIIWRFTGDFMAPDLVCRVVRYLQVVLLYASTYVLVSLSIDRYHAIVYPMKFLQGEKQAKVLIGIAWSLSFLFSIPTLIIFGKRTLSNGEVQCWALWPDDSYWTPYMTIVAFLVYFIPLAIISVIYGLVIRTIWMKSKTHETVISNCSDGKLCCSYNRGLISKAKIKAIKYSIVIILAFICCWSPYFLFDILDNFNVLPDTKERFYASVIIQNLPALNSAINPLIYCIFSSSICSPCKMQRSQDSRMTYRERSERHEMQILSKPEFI
Put plainly: Calcium mobilization assay, agonist. Type of experiment: cell-based. Particulars: HEK293mNPSR; mean ± SEM. For orientation: Calcium assays in cells follow changes in intracellular calcium, usually with a dye or a luminescent sensor.

Ends that are not written are not given here.

Take neurokinin A [NK-A]: the “potency relative to PWT derivative, calcium mobilization” value in the experiment with their receptors is listed as “more potent than their PWT derivatives”.

For the compound substance P [SP], the “duration of action, SP and PWT2-SP” value in experiment [1] (ref Ruzza et al. 2014) is roughly 5 min. Moreover, the “potency relative to PWT derivative, calcium mobilization” value in the experiment with their receptors was “more potent than their PWT derivatives”. Take `CN1C(=O)CN=C(c2ccccc2)c2cc(Cl)ccc21` [diazepam]: the “sensitivity to diazepam, NPSR wild type vs. knockout” value with NPSR(−/−) mice is on record as “no differences were measured”. On to nociceptin/orphanin FQ [N/OFQ], for which the “duration of action, N/OFQ” value in experiment [1] (ref Rizzi et al. 2014) is roughly 20 min. The “potency relative to PWT derivative, calcium mobilization” value in the experiment on their receptors is “more potent than their PWT derivatives”.

“SFRNGVGTGMKKTSFQRAKS [NPS, neuropeptide S]”: in experiment [2], the “Emax (increase in intracellular calcium)” value came out at 417 ± 34 % over the basal levels.

These data come from PMC4317238 (Pharmacology Research & Perspectives, 2015).
